From PMC11219871, “Epigenetic-based differentiation therapy for Acute Myeloid Leukemia” (Nature Communications, 2024)
Several values for one entry are separate records, joined by “and”; a condition that tells them apart may be missing. Equal entries are not always repeated.

Columns and labels:
OCI-AML2 = assay: Cell proliferation assay: GI50; type: cell-based
Experimental: (§1) Cell proliferation was analyzed using the CellTiter 96 Aqueous One Solution Cell Proliferation Assay (Promega, Madison, WI). This is a colorimetric method for determining the number of viable cells in proliferation. For the assay, suspension cells were cultured in triplicate at a density of 1 × 10^6 cells/mL in 96-well plates (100.000 cells/well, 100 µL/well), using only the 60 inner wells to avoid any border effects. After 48 h of treatment with different doses of each compound (0, 0.001, 0.01, 0.1, 0.2, 0.4, 0.6, 0.8, 1, 2, 3, 4, 5 and 10 µM), the plates were centrifuged at 800 g for 10 min followed by removal of the medium. Then, the cells were incubated with 100 μL/well of medium and 20 μL/well of CellTiter 96 Aqueous One Solution reagent for 1–3 h. The absorbance was recorded at 490 and 650 nm as reference wavelengths using 96-well plate readers until the absorbance of the control cells without treatment was approximately 0.8 AU. The background absorbance was measured in wells with only cell line medium and solution reagent. First, the average of the absorbance from the control wells was subtracted from all other absorbance values. Data were calculated as the percentage of total absorbance of treated cells/absorbance of non-treated cells. The GI50 values of the different compounds were determined using non-linear regression plots made with GraphPad Prism v5 software.

THP-1 = assay: Cell proliferation assay: GI50; type: cell-based
Experimental: as §1

GF-D8 = assay: Cell proliferation assay: GI50; type: cell-based
Experimental: as §1

MONO-MAC-6 = assay: Cell proliferation assay: GI50; type: cell-based
Experimental: as §1

M-07e = assay: Cell proliferation assay: GI50; type: cell-based
Experimental: as §1

KASUMI-1 = assay: Cell proliferation assay: GI50; type: cell-based
Experimental: as §1

OCI-AML3 = assay: Cell proliferation assay: GI50; type: cell-based
Experimental: as §1

NB-4 = assay: Cell proliferation assay: GI50; type: cell-based
Experimental: as §1

HEL = assay: Cell proliferation assay: GI50; type: cell-based
Experimental: as §1

UT-7 = assay: Cell proliferation assay: GI50; type: cell-based
Experimental: as §1

TF-1 = assay: Cell proliferation assay: GI50; type: cell-based
Experimental: as §1

ML-2 = assay: Differentiation-apoptosis assay, CD11b / annexin-V / Sytox Green / myeloid markers flow cytometry; type: cell-based, human; conditions: ML-2 cell line; replicates 1-3 (Figure 2A)
Outline: (§2)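 Cells washed in PBS, resuspended at 1 × 10^6 cells/mL in binding buffer and stained with APC-CD11b and FITC annexin-V for 15 min at room temperature in the dark, then read by flow cytometry. Other runs used a CD13/HLA-DR/CD14 antibody panel, 30 min staining, then red-cell lysis and washes.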

MV4-11 = assay: as above; type: cell-based, human; conditions: MV4-11 cell line; replicates 1-3 (Figure 2A)
Outline: as §2

MOLM-13 = assay: as above; type: cell-based, human; conditions: MOLM-13 cell line; replicates 1-3 (Figure 2A)
Outline: as §2

SMILES: CC1=C(/C=C/C(C)=C/C=C/C(C)=C/C(=O)O)C(C)(C)CCC1 [ATRA, all-trans retinoic acid, reference compound]
- GI50 (OCI-AML2; Homo sapiens, OCI-AML2, 48 h): > 10 µM
- GI50 (OCI-AML2; Homo sapiens, OCI-AML2, OCI-AML2, replicates 1-3): > 10 µM
- GI50 (OCI-AML2; OCI-AML2, replicates 1-3): > 10 µM
- GI50 (THP-1; Homo sapiens, THP-1, 48 h): > 10 µM
- GI50 (THP-1; Homo sapiens, THP-1, replicates 1-3): > 10 µM
- GI50 (THP-1; THP-1, replicates 1-3): > 10 µM
- GI50 (GF-D8; 48 h, GF-D8, 48 h): > 10 µM
- GI50 (GF-D8; GF-D8, replicates 1-3): > 10 µM
- GI50 (MONO-MAC-6; Homo sapiens, MONO-MAC-6, 48 h): > 10 µM
- GI50 (MONO-MAC-6; Homo sapiens, MONO-MAC-6, MONO-MAC-6, replicates 1-3): > 10 µM
- GI50 (MONO-MAC-6; MONO-MAC-6, replicates 1-3): > 10 µM
- GI50 (M-07e; 48 h): > 10 µM
- GI50 (M-07e; replicates 1-3): > 10 µM
- GI50 (KASUMI-1; Homo sapiens, Kasumi 1, 48 h, KASUMI-1, 48 h): > 10 µM
- GI50 (KASUMI-1; Homo sapiens, Kasumi 1, KASUMI-1, replicates 1-3): > 10 µM
- GI50 (KASUMI-1; KASUMI-1, replicates 1-3): > 10 µM
- GI50 (OCI-AML3; Homo sapiens, OCI-AML-3, OCI-AML3, 48 h): > 10 µM
- GI50 (OCI-AML3; Homo sapiens, OCI-AML-3, OCI-AML3, replicates 1-3): > 10 µM
- GI50 (OCI-AML3; OCI-AML3, replicates 1-3): > 10 µM
- GI50 (NB-4; Homo sapiens, NB-4, 48 h): > 10 µM
- GI50 (NB-4; Homo sapiens, NB-4, NB-4, replicates 1-3): > 10 µM
- GI50 (NB-4; NB-4, replicates 1-3): > 10 µM
- GI50 (HEL; Homo sapiens, 48 h): > 10 µM
- GI50 (HEL; Homo sapiens, replicates 1-3): > 10 µM
- GI50 (HEL; replicates 1-3): > 10 µM
- GI50 (UT-7; Homo sapiens, UT7, 48 h, UT-7, 48 h): > 10 µM
- GI50 (UT-7; Homo sapiens, UT7, UT-7, replicates 1-3): > 10 µM
- GI50 (UT-7; UT-7, replicates 1-3): > 10 µM
- GI50 (TF-1; Homo sapiens, TF-1, 48 h): > 10 µM
- GI50 (TF-1; Homo sapiens, TF-1, TF-1, replicates 1-3): > 10 µM
- GI50 (TF-1; TF-1, replicates 1-3): > 10 µM
- CD11b (%) (ML-2): 5.2% and 4.2% and 6.05%
- CD11b (%) (MV4-11): 9.6% and 4.7% and 11.86%
- CD11b (%) (MOLM-13): 26.9% and 23.1% and 27.34%
